Assay results reported in PubChem BioAssay AID1963966 (Molecular Pharmacology Branch, DTP, NCI, 2024).

Test system: 935938-334-R-J1-PDC spheroids with HUVEC/MSC, viability
Assay: Anticancer human tumor 935938-334-R-J1-PDC patient-derived small intestine adenocarcinoma cell line growth inhibition [PI3K]
Conditions: for IC50: curve of first compound; for viability, T/C: stronger effect = lower value
In short: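 Three cell types, namely tumor cells, endothelial cells and mesenchymal stem cells, formed each spheroid. Combinations with four PI3K inhibitors were screened at clinically achievable concentrations decreasing by half-log, and spheroid viability was recorded.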

[1] = second compound 0.0316 µM, first compound 0.00316 µM
[2] = second compound 0.0316 µM, first compound 0.01 µM
[3] = second compound 0.0316 µM, first compound 0.0316 µM
[4] = second compound 0.0316 µM, first compound 0.1 µM
[5] = second compound 0.0316 µM, first compound 0.316 µM
[6] = second compound 0.0316 µM, first compound 1 µM
[7] = second compound 0.1 µM, first compound 0.00316 µM
[8] = second compound 0.1 µM, first compound 0.01 µM
[9] = second compound 0.1 µM, first compound 0.0316 µM
[10] = second compound 0.1 µM, first compound 0.1 µM
[11] = second compound 0.1 µM, first compound 0.316 µM
[12] = second compound 0.1 µM, first compound 1 µM
[13] = second compound 0.316 µM, first compound 0.00316 µM
[14] = second compound 0.316 µM, first compound 0.01 µM
[15] = second compound 0.316 µM, first compound 0.0316 µM
[16] = second compound 0.316 µM, first compound 0.1 µM
[17] = second compound 0.316 µM, first compound 0.316 µM
[18] = second compound 0.316 µM, first compound 1 µM
[19] = second compound 1 µM, first compound 0.00316 µM
[20] = second compound 1 µM, first compound 0.01 µM
[21] = second compound 1 µM, first compound 0.0316 µM
[22] = second compound 1 µM, first compound 0.1 µM
[23] = second compound 1 µM, first compound 0.316 µM
[24] = second compound 1 µM, first compound 1 µM
[25] = second compound 3.16 µM, first compound 0.00316 µM
[26] = second compound 3.16 µM, first compound 0.01 µM
[27] = second compound 3.16 µM, first compound 0.0316 µM
[28] = second compound 3.16 µM, first compound 0.1 µM
[29] = second compound 3.16 µM, first compound 0.316 µM
[30] = second compound 3.16 µM, first compound 1 µM
[31] = second compound 10 µM, first compound 0.00316 µM
[32] = second compound 10 µM, first compound 0.01 µM
[33] = second compound 10 µM, first compound 0.0316 µM
[34] = second compound 10 µM, first compound 0.1 µM
[35] = second compound 10 µM, first compound 0.316 µM
[36] = second compound 10 µM, first compound 1 µM
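Further: compound exposure lasted seven days before viability was read.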
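Wherever viability, T/C is given: percent of vehicle DMSO treated spheroid viability so 100% = untreated.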

CCN1CCN(Cc2ccc(Nc3ncc(F)c(-c4cc(F)c5nc(C)n(C(C)C)c5c4)n3)nc2)CC1 + CC(Nc1ncnc2nc[nH]c12)c1cc2cccc(Cl)c2c(=O)n1-c1ccccc1
IC50 (second compound 0.0316 µM): 0.223 µM
IC50 (second compound 0.1 µM): 0.246 µM
IC50 (second compound 0.316 µM): 0.185 µM
IC50 (second compound 1 µM): 0.215 µM
IC50 (second compound 3.16 µM): 0.164 µM
IC50 (second compound 10 µM): 0.0589 µM
viability, T/C [1]: 90.2%
viability, T/C [2]: 85.8%
viability, T/C [3]: 71.4%
viability, T/C [4]: 58.9%
viability, T/C [5]: 46.8%
viability, T/C [6]: 37.3%
viability, T/C [7]: 95.7%
viability, T/C [8]: 92.6%
viability, T/C [9]: 73.8%
viability, T/C [10]: 62.9%
viability, T/C [11]: 41%
viability, T/C [12]: 48.2%
viability, T/C [13]: 79.4%
viability, T/C [14]: 85%
viability, T/C [15]: 70.3%
viability, T/C [16]: 53.4%
viability, T/C [17]: 49.1%
viability, T/C [18]: 35.2%
viability, T/C [19]: 77%
viability, T/C [20]: 86%
viability, T/C [21]: 66.7%
viability, T/C [22]: 64.4%
viability, T/C [23]: 43.1%
viability, T/C [24]: 31.5%
viability, T/C [25]: 74.3%
viability, T/C [26]: 68%
viability, T/C [27]: 57.5%
viability, T/C [28]: 56.8%
viability, T/C [29]: 43.6%
viability, T/C [30]: 40.1%
viability, T/C [31]: 59.3%
viability, T/C [32]: 82.1%
viability, T/C [33]: 63.4%
viability, T/C [34]: 39%
viability, T/C [35]: 38.3%
viability, T/C [36]: 34.6%

C[C@@H](NC(=O)c1ncnc(N)c1Cl)c1ncc(C(=O)Nc2cc(C(F)(F)F)c(Cl)cn2)s1 + CC(Nc1ncnc2nc[nH]c12)c1cc2cccc(Cl)c2c(=O)n1-c1ccccc1
IC50 (second compound 0.0316 µM): > 10 µM
IC50 (second compound 0.1 µM): > 10 µM
IC50 (second compound 0.316 µM): > 10 µM
IC50 (second compound 1 µM): > 10 µM
IC50 (second compound 3.16 µM): > 10 µM
IC50 (second compound 10 µM): > 10 µM
viability, T/C [3]: 104%
viability, T/C [4]: 103%
viability, T/C [5]: 90.1%
viability, T/C [6]: 120%
viability, T/C (second compound 0.0316 µM, first compound 3.16 µM): 109%
viability, T/C (second compound 0.0316 µM, first compound 10 µM): 75.6%
viability, T/C [9]: 109%
viability, T/C [10]: 138%
viability, T/C [11]: 123%
viability, T/C [12]: 99.8%
viability, T/C (second compound 0.1 µM, first compound 3.16 µM): 98.2%
viability, T/C (second compound 0.1 µM, first compound 10 µM): 111%
viability, T/C [15]: 123%
viability, T/C [16]: 84.5%
viability, T/C [17]: 118%
viability, T/C [18]: 127%
viability, T/C (second compound 0.316 µM, first compound 3.16 µM): 98.3%
viability, T/C (second compound 0.316 µM, first compound 10 µM): 107%
viability, T/C [21]: 97.8%
viability, T/C [22]: 86.6%
viability, T/C [23]: 126%
viability, T/C [24]: 95.1%
viability, T/C (second compound 1 µM, first compound 3.16 µM): 117%
viability, T/C (second compound 1 µM, first compound 10 µM): 69.8%
viability, T/C [27]: 91.8%
viability, T/C [28]: 116%
viability, T/C [29]: 109%
viability, T/C [30]: 104%
viability, T/C (second compound 3.16 µM, first compound 3.16 µM): 90%
viability, T/C (second compound 3.16 µM, first compound 10 µM): 70%
viability, T/C [33]: 81.4%
viability, T/C [34]: 88.5%
viability, T/C [35]: 98.7%
viability, T/C [36]: 92.9%
viability, T/C (second compound 10 µM, first compound 3.16 µM): 87.8%
viability, T/C (second compound 10 µM, first compound 10 µM): 60.8%

Cn1ncnc1[C@H]1c2n[nH]c(=O)c3cc(F)cc(c23)N[C@@H]1c1ccc(F)cc1 + CC(Nc1ncnc2nc[nH]c12)c1cc2cccc(Cl)c2c(=O)n1-c1ccccc1
IC50 (second compound 0.0316 µM): > 0.1 µM
IC50 (second compound 0.1 µM): > 0.1 µM
IC50 (second compound 0.316 µM): > 0.1 µM
IC50 (second compound 1 µM): > 0.1 µM
IC50 (second compound 3.16 µM): > 0.1 µM
IC50 (second compound 10 µM): > 0.1 µM
viability, T/C (second compound 0.0316 µM, first compound 0.000316 µM): 95.3%
viability, T/C (second compound 0.0316 µM, first compound 0.001 µM): 84.7%
viability, T/C [1]: 82.9%
viability, T/C [2]: 108%
viability, T/C [3]: 102%
viability, T/C [4]: 84.3%
viability, T/C (second compound 0.1 µM, first compound 0.000316 µM): 86.7%
viability, T/C (second compound 0.1 µM, first compound 0.001 µM): 84.5%
viability, T/C [7]: 91.8%
viability, T/C [8]: 80.2%
viability, T/C [9]: 85.1%
viability, T/C [10]: 88.1%
viability, T/C (second compound 0.316 µM, first compound 0.000316 µM): 109%
viability, T/C (second compound 0.316 µM, first compound 0.001 µM): 85.4%
viability, T/C [13]: 83.6%
viability, T/C [14]: 97.4%
viability, T/C [15]: 81.3%
viability, T/C [16]: 83.2%
viability, T/C (second compound 1 µM, first compound 0.000316 µM): 102%
viability, T/C (second compound 1 µM, first compound 0.001 µM): 115%
viability, T/C [19]: 86.3%
viability, T/C [20]: 48.2%
viability, T/C [21]: 93.1%
viability, T/C [22]: 87.2%
viability, T/C (second compound 3.16 µM, first compound 0.000316 µM): 98%
viability, T/C (second compound 3.16 µM, first compound 0.001 µM): 71.9%
viability, T/C [25]: 90.9%
viability, T/C [26]: 70.9%
viability, T/C [27]: 83.2%
viability, T/C [28]: 84.1%
viability, T/C (second compound 10 µM, first compound 0.000316 µM): 62.7%
viability, T/C (second compound 10 µM, first compound 0.001 µM): 89%
viability, T/C [31]: 94.6%
viability, T/C [32]: 81.5%
viability, T/C [33]: 91.6%
viability, T/C [34]: 67.8%
